Reference: patent US8633167B2, “Method for the protection of trees” (Syngenta Crop Protection LLC, priority 2006, dated 2014)

What was measured:
Ips engravers beetles = assay: Bolt study (Example 1): Ips attack and gallery construction on loblolly pine bolts cut after trunk injection; assay type: in vivo; conditions: for reduction of length of egg galleries compared to check trees / reduction of total number of egg galleries compared to check trees: May
Source text: The intent of the study was to evaluate the efficacy of systemic injections of emamectin benzoate in reducing success of pine bark beetle attacks on loblolly pine and determine the duration of treatment efficacy. As SPB populations were extremely low in Texas in 2004, Ips engravers beetles were used as indicator species.
Two 20-year-old, recently thinned loblolly pine plantations were selected on land owned by Temple-Inland Forest Products Corporation about 5 km south of Wells (Angelina County), Tex. Trees in one plantation were injected for use in a bolt study (Example 1). Trees in a 0.2 ha section of the second plantation were injected as part of a single-tree protection study (Example 2). A staging area also was set up in the second plantation where bolts from the first plantation were exposed to bark beetles and wood borers.
Seventy-five loblolly pine trees, Pinus taeda L., 15-20 cm diameter at breast height (DBH), were selected in March 2004. Each treatment was injected into four cardinal points about 0.3 m above the ground on each of 15 trees in April (16th-23rd) using the new Arborjet Tree IV™ microinfusion system (Arborjet, Inc. Woburn, Mass.). The treatments included: • 1) Emamectin benzoate (Denim®, 1.92% ai, Syngenta Crop Science)—Denim® was mixed 1:1 with methanol and applied at 18.6 ml solution per inch of tree diameter at breast height (DBH) (=0.2 g active per inch DBH). • 2) Check (untreated)
After 1 (May 24), 3 (July 19) and 5 (September) months post-injection, 5 trees of each treatment were felled and two 1.5 m long bolts were removed from the 3 m and 8 m heights of the bole. The bolts were transported to a nearby plantation that was recently thinned and contained fresh slash material. Each bolt was placed about 1 m apart on discarded, dry pine bolts to maximize surface area available for colonization as well as to discourage predation by ground and litter-inhabiting organisms. To facilitate timely bark beetle colonization, packets of bark beetle pheromones (racemic ipsdienol + lanerione combination, ipsenol or cis-verbenol; Phero Tech, Inc., Delta, BC, Canada) were attached separately to three 1 m stakes evenly spaced in the study area. Racemic ipsdienol and cis-verbenol were used with the second and third series of bolts deployed in July and September, respectively. The packets were removed after 2 weeks when signs of attacks (boring dust) were observed on most test bolts, signaling that naturally-produced pheromones were present.
A clear panel of acetate (10 cm wide by 25 cm long) was attached to the center of each bolt after deployment of bolts to monitor arrival of bark beetles. The top surface of each panel was coated entirely with Stikem Special® trapping compound (Michel and Pelton, Emeryville, Calif.). The traps were left in place for two weeks.
Each series of bolts were retrieved about 3 weeks after deployment, after observing many cerambycid egg niches on the bark surface of most bolts. There was concern that if cerambycid larvae were allowed to develop too long, their feeding activity would obscure or obliterate the Ips galleries. Thus, each series of bolts were retrieved and stored temporarily in a TFS seedling cooler (˜45° F.) to slow cerambycid development until the bolts could be evaluated.
In the laboratory, two 10×50 cm strips (total=1000 cm^2) of bark were removed from each bolt. […]

[1] = test system: pine wood nematode, Bursaphelenchus xylophilis; conditions: cited from earlier work
[2] = 1 Month Post-Injection (May), bolt height 3 m
[3] = 1 Month Post-Injection (May), bolt height 8 m
[4] = 3 Months Post-Injection (July), bolt height 3 m
[5] = 3 Months Post-Injection (July), bolt height 8 m
[6] = 5 Months Post-Injection (September), bolt height 3 m
[7] = 5 Months Post-Injection (September), bolt height 8 m

## 4″-deoxy-4″-N-methylamino avermectin B1a/B1b [Emamectin]
Ips engravers beetles; [2]
  Length of Egg Galleries Total Length: 30.7 a cm
  Length of Egg Galleries With Brood % Total: 49.5%
  Length of Egg Galleries With Brood cm: 15.2 a cm
  Length of Egg Galleries Without Brood % Total: 50.5%
  Length of Egg Galleries Without Brood cm: 15.5 a cm
  Mean # of Ips caught/Trap: 3.8 a
  Mean # of Nuptial Chambers Without Egg Galleries No.: 14.6 c
  Mean # of Nuptial Chambers Without Egg Galleries Total: 78.5
  Mean # of Nuptial Chambers with Egg Galleries No.: 4.0 a
  Mean # of Nuptial Chambers with Egg Galleries Total: 21.5
  Mean Total # of Nuptial Chambers: 18.6 a
  Number of Egg Galleries Total Galleries: 12.4 a
  Number of Egg Galleries With Brood % Total: 19.4%
  Number of Egg Galleries With Brood No.: 2.4 a
  Number of Egg Galleries Without Brood % Total: 80.6%
  Number of Egg Galleries Without Brood No.: 10.0 a
Ips engravers beetles; [3]
  Length of Egg Galleries Total Length: 13.5 a cm
  Length of Egg Galleries With Brood % Total: 8.9%
  Length of Egg Galleries With Brood cm: 1.2 a cm
  Length of Egg Galleries Without Brood % Total: 91.1%
  Length of Egg Galleries Without Brood cm: 12.3 a cm
  Mean # of Ips caught/Trap: 4.8 a
  Mean # of Nuptial Chambers Without Egg Galleries No.: 9.0 c
  Mean # of Nuptial Chambers Without Egg Galleries Total: 69.2
  Mean # of Nuptial Chambers with Egg Galleries No.: 4.0 a
  Mean # of Nuptial Chambers with Egg Galleries Total: 30.8
  Mean Total # of Nuptial Chambers: 13.0 ab
  Number of Egg Galleries Total Galleries: 4.2 a
  Number of Egg Galleries With Brood % Total: 4.8%
  Number of Egg Galleries With Brood No.: 0.2 a
  Number of Egg Galleries Without Brood % Total: 95.2%
  Number of Egg Galleries Without Brood No.: 4.0 a
Ips engravers beetles; [4]
  Length of Egg Galleries Total Length: 0.0 a cm
  Length of Egg Galleries With Brood cm: 0.0 a cm
  Length of Egg Galleries Without Brood cm: 0.0 a cm
  Mean # of Ips caught/Trap: 1.8 a
  Mean # of Nuptial Chambers Without Egg Galleries No.: 11.0 b
  Mean # of Nuptial Chambers Without Egg Galleries Total: 100.0
  Mean # of Nuptial Chambers with Egg Galleries No.: 0.0 a
  Mean # of Nuptial Chambers with Egg Galleries Total: 0.0
  Mean Total # of Nuptial Chambers: 11.0 ab
  Number of Egg Galleries Total Galleries: 0.0 a
  Number of Egg Galleries With Brood No.: 0.0 a
  Number of Egg Galleries Without Brood No.: 0.0 a
Ips engravers beetles; [5]
  Length of Egg Galleries Total Length: 0.0 a cm
  Length of Egg Galleries With Brood cm: 0.0 a cm
  Length of Egg Galleries Without Brood cm: 0.0 a cm
  Mean # of Ips caught/Trap: 3.4 a
  Mean # of Nuptial Chambers Without Egg Galleries No.: 8.4 c
  Mean # of Nuptial Chambers Without Egg Galleries Total: 100.0
  Mean # of Nuptial Chambers with Egg Galleries No.: 0.0 a
  Mean # of Nuptial Chambers with Egg Galleries Total: 0.0
  Mean Total # of Nuptial Chambers: 8.4 b
  Number of Egg Galleries Total Galleries: 0.0 a
  Number of Egg Galleries With Brood No.: 0.0 a
  Number of Egg Galleries Without Brood No.: 0.0 a
Ips engravers beetles; [6]
  Length of Egg Galleries Total Length: 0.0 a cm
  Length of Egg Galleries With Brood cm: 0.0 a cm
  Length of Egg Galleries Without Brood cm: 0.0 a cm
  Mean # of Ips caught/Trap: 1.2 a
  Mean # of Nuptial Chambers Without Egg Galleries No.: 3.8 b
  Mean # of Nuptial Chambers Without Egg Galleries Total: 100.0
  Mean # of Nuptial Chambers with Egg Galleries No.: 0.0 a
  Mean # of Nuptial Chambers with Egg Galleries Total: 0.0
  Mean Total # of Nuptial Chambers: 3.8 a
  Number of Egg Galleries Total Galleries: 0.0 a
  Number of Egg Galleries With Brood No.: 0.0 a
  Number of Egg Galleries Without Brood No.: 0.0 a
Ips engravers beetles; [7]
  Length of Egg Galleries Total Length: 0.0 a cm
  Length of Egg Galleries With Brood cm: 0.0 a cm
  Length of Egg Galleries Without Brood cm: 0.0 a cm
  Mean # of Ips caught/Trap: 0.4 a
  Mean # of Nuptial Chambers Without Egg Galleries No.: 4.4 b
  Mean # of Nuptial Chambers Without Egg Galleries Total: 100.0
  Mean # of Nuptial Chambers with Egg Galleries No.: 0.0 a
  Mean # of Nuptial Chambers with Egg Galleries Total: 0.0
  Mean Total # of Nuptial Chambers: 4.4 a
  Number of Egg Galleries Total Galleries: 0.0 a
  Number of Egg Galleries With Brood No.: 0.0 a
  Number of Egg Galleries Without Brood No.: 0.0 a
Ips engravers beetles; July and September, all bolts
  construction of egg galleries: completely prevented
Ips engravers beetles; July and September, both heights
  attacks unsuccessful: 100%
Ips engravers beetles; 3 m
  reduction of length of egg galleries compared to check trees: 94%
  reduction of total number of egg galleries compared to check trees: 81%
Ips engravers beetles; 8 m
  reduction of length of egg galleries compared to check trees: 99%
  reduction of total number of egg galleries compared to check trees: 96%
Ips engravers beetles; bolts evaluated in May, 3 m height
  attacks unsuccessful: 79%
Ips engravers beetles; bolts evaluated in May, 8 m height
  attacks unsuccessful: 69%
Ips engravers beetles; both examples, one, three and five months after injection
  preventing successful attacks by Ips bark beetles and cerambycids: highly effective
[1]; pine, against pine wood nematode and coneworm
  duration of protection: more than three years
[1]; systemic activity in pine
  efficacy against pine wood nematode: highly effective
